Results: patent US11648242B2, “Pharmaceutical composition comprising pimavanserin, process of preparation and use thereof” (Aurobindo Pharma Ltd., priority 2019, dated 2023)
Structures can show the parent of a compound that is named as a salt.

Columns and labels:
[1] = cited from earlier work
[2] = Bulk density of the API; format: physicochemical; conditions: native amorphous pimavanserin tartrate API
[3] = Particle size distribution (D90) of the API; format: physicochemical; conditions: native amorphous pimavanserin tartrate API

| SMILES | Solubility in water [1] | Bulk density [2] | Particle size distribution of API (D90) [3] |
| --- | --- | --- | --- |
| CC(C)COc1ccc(CNC(=O)N(Cc2ccc(F)cc2)C2CCN(C)CC2)cc1 [Pimavanserin tartrate, urea, N-[(4-fluorophenyl)methyl]-N-(1-methyl-4-piperidinyl)-N′-[[4-(2methylpropoxy)phenyl]methyl]-, (2R, 3R)-2,3-dihydroxybutanedioate (2:1)] | freely soluble | – | – |
| CC(C)COc1ccc(CNC(=O)N(Cc2ccc(F)cc2)C2CCN(C)CC2)cc1 [native amorphous pimavanserin tartrate] | – | 0.374 g/mL | about 100 μm |
